# From ChEMBL document CHEMBL1124587 (J Med Chem, 1989)
# Key:
# [1] = Partition coefficient (logD); settings: octanol/water
# [2] = molecular target: Glycine receptor (Rattus norvegicus); experiment: Inhibition of binding of [3H]strychnine to glycine receptor
# [3] = Inhibition of binding of [3H]strychnine to glycine receptor in rat
logP [1],Structure (SMILES),also measured
1.07,Oc1coc2cc[nH]c12,–
0.33,Oc1coc2[nH]cnc12,–
0.85,COc1ccc(-c2[nH]nc(O)c2N)cc1,–
–,Nc1c(C(F)(F)F)n[nH]c1O,IC50 [2]: 418 µM
–,NCC(=O)O [GLYCINE],IC50 [3]: 6 µM
–,CNCC(=O)O [SARCOSINE],IC50 [3]: 350 µM

Structure (SMILES),logP [1],also measured
Nc1ccccc1O [QUESTIOMYCIN B],0.65,–
